Reference: US10648035B2, “Methods and compositions for diagnosing and treating gastric cancer” (THE JOHNS HOPKINS UNIVERSITY, priority 2012, dated 2020)

Columns and labels:
Barx1 expression in AGS = experiment: Barx1 mRNA re-expression in AGS after 5-Aza-dC treatment; type: cell-based; conditions: AGS cells after treatment
[1] = tested on: claudin-11 mRNA expression in AGS gastric cancer cells; experiment: Claudin-11 mRNA re-expression in AGS cells after demethylating treatment (qRT-PCR); type: cell-based; design: claudin-11 mRNA expression, ratio of treated vs. untreated cells: dose or concentration left out as unconfirmed
Source text: FIG. 23. Claudin-11 mRNA re-expression in AGS gastric cancer cells after treatment with 5-Aza-dC. AGS is a gastric cancer cell line manifesting hypermethylation of the claudin-11 promoter in conjunction with absent claudin-11 mRNA expression (FIG. 17). Total RNAs from AGS cells before and after 5-aza-2-deoxycytidine treatment were subjected to quantitative real-time RT-PCR analysis. The Y-axis represents the expression ratio of 5-aza-dC-treated vs. untreated cells. […] This restoration of claudin-11 expression after 5-Aza-dC treatment supports our hypothesis that claudin-11 is silenced by promoter hypermethylation in GC cells.
[…] Total RNAs extracted before vs. after treatment were subjected to qRT-PCR for CLDN11.

Q: With Nc1ncn([C@H]2C[C@H](O)[C@@H](CO)O2)c(=O)n1 [5-Aza-dC, 5-aza-2-deoxycytidine] as the molecule, how does the “Barx1 mRNA re-expression” value (Barx1 expression in AGS) read?
A: restoration of Barx1 expression

Q: And the “Barx1 mRNA re-expression” value (Barx1 expression in AGS; listed as 5-AzaC)?
A: BARX mRNA re-expression

Q: And the “CLDN11 mRNA re-expression” value ([1]; 1 μM, varying time intervals)?
A: CLDN11 mRNA became more re-expressed

Q: What about the “claudin-11 mRNA expression, ratio of treated vs. untreated cells” value ([1]; first 72 hrs. of treatment) of the same molecule?
A: time-dependent increase in claudin-11 mRNA expression
